Laboratory results taken from patent US20250265710A1, “NON-INVASIVE LASER SPECKLE IMAGING OF EXTRA-EMBRYONIC BLOOD VESSELS” (California Institute of Technology, priority 2024, published 2025).
Where two headings read alike, the source gives them in different places.

Tested on: chick embryonic heart
Method: These drugs were injected through the shell ventral to chick embryos at a developmental HH stage between HH16-19. The needle was guided to the embryos by the LLSCI system in live view mode.
In one example, before imaging, the eggs are injected with a drug by implementing a live view mode to ascertain the position of the embryo's heart and inserted a needle into the eggshell and the drug was injected into the area ventral to the embryo in a volume of 25-150 μL. This may result in a hole in the eggshell having a diameter between 0.6 and 0.8 mm. The hole can be covered by transparent tape to ensure the continued development of the embryo. After injection, the egg may be placed in an incubator (e.g., incubator 440 in FIG. 4) and imaged at regular intervals using a GUI (e.g., GUI 487 in FIG. 4). FIG. 22 is a schematic representation of a procedure for using LSCI imaging to determine the location of avian embryos for injection, according to an embodiment.
FIG. 23A depicts images of extraembryonic blood vessels of the control egg generated by the LSCI system 400 in FIG. 4 and images (frames) of a movie showing the dynamics of the blood vessels at time=3 minutes, time=34 minutes, time=73 minutes, time=129 minutes, time=250 minutes, and time=270 minutes. FIG. 23A also includes a time trace of BFI at these times. The time trace of the BFI is indicative of heart rate.
To quantify and characterize the effects of injecting a drug solution onto the CAM, an LSCI system was used to extract four features from the blood vessels images and blood flow graphs. FIG. 24 depicts examples of extraembryonic blood vessel images 2410, 2420 before and after feature extraction, and a heartbeat signal, according to embodiments. Blood vessel skeleton, branches, and the size of the CAM visualized. […] The LSCI system implemented the LSCI process 1400 shown in FIG. 14 to extract the features.
In various examples, the length of the blood vessels may be calculated as the total length of the vessel skeleton in the blood vessel image. In various examples, the number of branches may be determined by counting the branch points connecting the blood vessels and isolated vessel segments in the blood vessel images. In various examples, the vessel area may be obtained by calculating the area of the CAM in the blood vessel image. In various examples, the heart rate may be measured from the Fourier transform of the blood flow signal.
Tests were also performed on five eggs for each of the two Amlodipine concentrations. […] FIG. 25B includes a plot of heart rate 2530, a plot of length of blood vessels 2532, a plot of the number of branches 2540, and a plot of the size of the area vaculosa (AV) 2542 for test eggs injected with two different Amlodipine concentrations, according to embodiments.

| SMILES | embryo viability (higher doses >60 nmol) | time to heart rate nadir (higher doses >60 nmol) | embryo development when incubated 7 days after the experiment (lowest dose tested (<50 nmol)) | time after injection without begin of return of heart rate to normal levels (higher doses above 5 nmol) | time to heart rate nadir (higher doses above 5 nmol) | period over which heart rate dropped (low doses around 3 nmol) | heart rate an hour after injection (one egg, 50 μL solution with 3 nmole) | heart rate after injection (one egg, 50 μL solution with 3 nmole, dropped from 132 bpm pre-injection) |
| --- | --- | --- | --- | --- | --- | --- | --- | --- |
| CCOC(=O)C1=C(COCCN)NC(C)=C(C(=O)OC)C1c1ccccc1Cl (centres unmarked) [Amlodipine] | embryo died at the time of injection, or its later development was heavily compromised | 20 min | developed normally |  |  |  |  |  |
| COC(=O)C1=C(C)NC(C)=C(C(=O)OC)C1c1ccccc1[N+](=O)[O-] [Nifedipine] |  |  |  | > 100 min | 20 min | 40 min | 100 bpm | 94 bpm |
